US10662171B2, “Antidiabetic bicyclic compounds” (Merck Sharp & Dohme Corp., priority 2014, dated 2020)

What follows are compounds tested against T1, human GPR40 (Homo sapiens, UniProt O14842) (assay: Inositol Phosphate Turnover (IP1) Assay 1). Details: HEK cells stably expressing human GPR40; compound transferred via pocket tip; 60 minutes at 37 degrees.
T1 construct: expressed in transfected cells; host or cells: HEK cells stably expressing the aequorin reporter
Type: cell-based
Protocol: (§1) Human and mouse GPR40 stable cell-lines were generated in CHO cells stably expressing NFAT BLA (Beta-lactamase). A human GPR40 stable cell-line was generated in HEK cells stably expressing the aequorin expressing reporter. The expression plasmids were transfected using lipofectamine (Life Technologies) following manufacturer's instructions. Stable cell-lines were generated following drug selection.
(§2) The assay is performed in 384-well format. HEK cells stably expressing human GPR40 are plated at 15,000 cells per well in growth medium (DMEM/10% fetal calf serum). Cell plates are then incubated 16 hours at 37 degrees in a 5% CO2 incubator.
Measurement of Inositol Phosphate Turnover (IP1) is performed using the CisBio IP-One kit (Part number 62IPAPEB). After the 16 hour incubation, the cells are washed with HEPES buffer and 10 ul of stimulation buffer (prepared as described in the kit) is added to each well. In a separate plate, compounds are diluted in DMSO (400-fold over the final concentration in the assay well) and 25 nl is transferred via pocket tip to the appropriate well in the assay cell plate. The plates are then incubated for 60 minutes at 37 degrees. 10 ul of detection buffer (also prepared as described in the IP-One kit) is added to each well and the plates are incubated for 60 minutes in the dark. The plates are then read in a Perkin Elmer EnVision or equivalent reader able to measure FRET. Fluorescent ratio of emission at 665 and 620 nm is then converted to IP1 concentration by back calculating from an IP1 standard curve prepared at the time of the assay.

T1 sequence (O14842 whole entry): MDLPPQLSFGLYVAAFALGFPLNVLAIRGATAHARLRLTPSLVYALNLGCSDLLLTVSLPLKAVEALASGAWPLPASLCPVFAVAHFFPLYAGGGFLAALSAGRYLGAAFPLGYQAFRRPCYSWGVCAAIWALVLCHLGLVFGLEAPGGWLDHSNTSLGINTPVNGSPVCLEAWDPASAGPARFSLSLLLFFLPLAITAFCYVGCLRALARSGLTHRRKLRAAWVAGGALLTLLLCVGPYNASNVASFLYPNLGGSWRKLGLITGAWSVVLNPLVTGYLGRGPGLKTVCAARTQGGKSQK

| EC50 [nM] | Structure (SMILES) |
| --- | --- |
| 5380 | COc1ccc(F)c(-c2ccc(C3Cc4cc(C(CC(=O)O)C5CC5)ccc4CO3)cc2)c1 (mixture of isomers) [Example 20, 3-cyclopropyl-3-(3-(2′-fluoro-5′-methoxy-[1,1′-biphenyl]-4-yl)isochroman-6-yl)propanoic acid] |
| 330 | COc1ccc(F)c(-c2ccc(C3COc4ccc(C(CC(=O)O)C5CC5)cc4C3)cc2)c1 (single isomer, unassigned) [Example 3] |
| 75 | COc1ccc(F)c(-c2ccc(C3COc4ccc(C(CC(=O)O)C5CC5)cc4C3)cc2)c1 (single isomer, unassigned) [Example 4] |
| 106 | COc1ccc(F)c(-c2ccc(C3COc4ccc(C(CC(=O)O)C5CC5)cc4C3)cc2)c1 (single isomer, unassigned) [Example 5] |
| 5.6 | COc1ccc(F)c(-c2ccc(C3COc4ccc([C@H](C5CC5)[C@H](C)C(=O)O)cc4C3)cc2)c1 (single isomer, unassigned) [Example 6] |
| 3 | COc1ccc(F)c(-c2ccc(C3COc4ccc([C@H](C5CC5)[C@H](C)C(=O)O)cc4C3)cc2)c1 (single isomer, unassigned) [Example 7] |
| 169 | COc1ccc(F)c(-c2ccc(C3COc4ccc([C@@H](C5CC5)[C@@H](C)C(=O)O)cc4C3)cc2)c1 (single isomer, unassigned) [Example 8] |
| 60 | COc1ccc(F)c(-c2ccc(C3COc4ccc([C@@H](C5CC5)[C@@H](C)C(=O)O)cc4C3)cc2)c1 (single isomer, unassigned) [Example 9] |
| 13 | COc1cc(-c2ccc(C3COc4ccc([C@H](C5CC5)[C@H](C)C(=O)O)cc4C3)cc2)c(F)cn1 (single isomer, unassigned) [Example 10] |
| 6.3 | COc1cc(-c2ccc(C3COc4ccc([C@H](C5CC5)[C@H](C)C(=O)O)cc4C3)cc2)c(F)cn1 (single isomer, unassigned) [Example 11] |
| 26 | COc1cc(-c2ccc(C3COc4ccc([C@H](C5CC5)[C@H](C)C(=O)O)cc4C3)cc2)ccn1 (single isomer, unassigned) [Example 15] |
| 12 | COc1cc(-c2ccc(C3COc4ccc([C@H](C5CC5)[C@H](C)C(=O)O)cc4C3)cc2)ccn1 (single isomer, unassigned) [Example 16] |
| 166 | COc1ccc(F)c(-c2ccc(C3Cc4cc([C@H](C5CC5)[C@H](C)C(=O)O)ccc4C(=O)O3)cc2)c1 (stereo in doubt) [Example 24, (2S,3R)-3-cyclopropyl-3-((S)-3-(2′-fluoro-5′-methoxy-[1,1′-biphenyl]-4-yl)-1-oxoisochroman-6-yl)-2-methylpropanoic acid] |
| 155 | COc1ccc(F)c(-c2ccc(C3COc4ccc(C(CC(=O)O)C5CC5)cc4C3)cc2)c1 (stereo not shown) [Example 1, 3-cyclopropyl-3-(3-(2′-fluoro-5′-methoxy-[1,1′-biphenyl]-4-yl)chroman-6-yl)propanoic acid] |
| 12 | COc1cc(-c2ccc(C3COc4ccc([C@H](C5CC5)[C@H](C)C(=O)O)cc4C3)cc2)ccn1 (stereo partly shown) [Example 12] |
| 592 | Cc1cccc(C)c1-c1ccc(C2COc3ccc([C@H](C4CC4)[C@H](C)C(=O)O)cc3C2)cc1 (stereo partly shown) [Example 13] |
| 32 | COc1cc(-c2ccc(C3COc4ccc([C@H](C5CC5)[C@H](C)C(=O)O)cc4C3)c(F)c2)ccn1 (stereo partly shown) [Example 14] |
| 250 | C[C@H](C(=O)O)[C@H](c1ccc2c(c1)CC(c1ccc(-c3cccc(OC4CC4)c3)cc1)CO2)C1CC1 (stereo partly drawn) [Example 19, (2S,3R)-3-(3-(3′-cyclopropoxy-[1,1′-biphenyl]-4-yl)chroman-6-yl)-3-cyclopropyl-2-methylpropanoic acid] |
| 424 | COc1ccc(F)c(-c2ccc([C@@H]3Cc4cc([C@H](C5CC5)[C@H](C)C(=O)O)ccc4C(=O)O3)cc2)c1 [Example 23, (2S,3R)-3-cyclopropyl-3-((S)-3-(2′-fluoro-5′-methoxy-[1,1′-biphenyl]-4-yl)-1-oxoisochroman-6-yl)-2-methylpropanoic acid] |
| 729 | C[C@H](C(=O)O)[C@H](c1ccc2c(c1)CC(C1CCN(Cc3cc(C(F)(F)F)ccc3C(F)(F)F)CC1)CO2)C1CC1 (stereo partly drawn) [Example 25, Sodium (2S,3R)-3-(3-(1-(2,5-bis(trifluoromethyl)benzyl)piperidin-4-yl)chroman-6-yl)-3-cyclopropyl-2-methylpropanoate] |
| 24 | COc1ccc(F)c(-c2ccc(C3CCc4ccc(C(C5CC5)C(C)C(=O)O)cc4C3)cc2)c1 (stereo not shown) [Example 26, 3-cyclopropyl-3-(7-(2′-fluoro-5′-methoxy-[1,1′-biphenyl]-4-yl)-5,6,7,8-tetrahydronaphthalen-2-yl)-2-methylpropanoic acid] |
| 6.9 | COc1ccc(F)c(-c2ccc(C3CSc4ccc([C@H](C5CC5)[C@H](C)C(=O)O)cc4C3)cc2)c1 (stereo partly drawn) [Example 27, (2S,3R)-3-cyclopropyl-3-(3-(2′-fluoro-5′-methoxy-[1,1′-biphenyl]-4-yl)thiochroman-6-yl)-2-methylpropanoic acid] |
| 69 | COc1ccc(F)c(-c2ccc(C3Cc4cc([C@H](C5CC5)[C@H](C)C(=O)O)ccc4S(=O)(=O)C3)cc2)c1 (stereo partly drawn) [Example 28, (2S,3R)-3-Cyclopropyl-3-(3-(2′-fluoro-5′-methoxy-[1,1′-biphenyl]-4-yl)-1,1-dioxidothiochroman-6-yl)-2-methylpropanoic acid] |

What follows are compounds tested against T1, human GPR40 (assay: Inositol Phosphate Turnover (IP1) Assay 2). Details: HEK cells stably expressing human GPR40; compound acoustically transferred; 60 minutes at 37 degrees.
Type: cell-based
Protocol: as §1, §2
Measurement of Inositol Phosphate Turnover (IP1) is performed using the CisBio IP-One kit (Part number 62IPAPEB). After the 16 hour incubation, the cells are washed with HEPES buffer and 10 ul of stimulation buffer (prepared as described in the kit) is added to each well. In a separate plate, compounds are diluted in DMSO (400-fold over the final concentration in the assay well) and 25 nl is acoustically transferred to the appropriate well in the assay cell plate. The plates were then incubated for 60 minutes at 37 degrees. 10 ul of detection buffer (also prepared as described in the IP-One kit) is added to each well and the plates are incubated for 60 minutes in the dark. The plates are then read in a Perkin Elmer EnVision or equivalent reader able to measure FRET. Fluorescent ratio of emission at 665 and 620 nm is then converted to IP1 concentration by back calculating from an IP1 standard curve prepared at the time of the assay.

| EC50 [nM] | Structure (SMILES) |
| --- | --- |
| 15 | COc1cc(-c2ccc(C3COc4ccc([C@H](C5CC5)[C@H](C)C(=O)O)cc4C3)c(F)c2)ccn1 (single isomer, unassigned) [Example 17] |
| 8.1 | COc1cc(-c2ccc(C3COc4ccc([C@H](C5CC5)[C@H](C)C(=O)O)cc4C3)c(F)c2)ccn1 (single isomer, unassigned) [Example 18] |
| 3960 | COc1cc(-c2ccc(C3=Cc4cc([C@@H](C5CC5)[C@H](C)C(=O)O)ccc4CC3)c(F)c2)ccn1 (single isomer, unassigned) [Example 29] |
| 3.8 | COc1cc(-c2ccc(C3=Cc4cc([C@@H](C5CC5)[C@@H](C)C(=O)O)ccc4CC3)c(F)c2)ccn1 (single isomer, unassigned) [Example 30] |
| 0.5 | COc1cc(-c2ccc(C3=Cc4cc([C@H](C5CC5)[C@H](C)C(=O)O)ccc4CC3)c(F)c2)ccn1 (single isomer, unassigned) [Example 31] |
| 28 | COc1cc(-c2ccc(C3=Cc4cc([C@H](C5CC5)[C@@H](C)C(=O)O)ccc4CC3)c(F)c2)ccn1 (single isomer, unassigned) [Example 32] |
| 1.4 | COc1cc(-c2ccc(C3CCc4ccc(C(C5CC5)C(C)C(=O)O)cc4C3)c(F)c2)ccn1 (single isomer, unassigned) [Example 33, 3-cyclopropyl-3-(7-(2-fluoro-4-(2-methoxypyridin-4-yl)phenyl)-5,6,7,8-tetrahydronaphthalen-2-yl)-2-methylpropanoic acid] |
| 13 | COc1cc(-c2ccc(C3CCc4ccc(C(C5CC5)C(C)C(=O)O)cc4C3)c(F)c2)ccn1 (single isomer, unassigned) [Example 34] |
| 257 | COc1cc(-c2ccc(C3CCc4ccc(C(C5CC5)C(C)C(=O)O)cc4C3)c(F)c2)ccn1 (single isomer, unassigned) [Example 35] |
| 4.8 | COc1cc(-c2ccc(C3CCc4ccc(C(C5CC5)C(C)C(=O)O)cc4C3)c(F)c2)ccn1 (single isomer, unassigned) [Example 36] |
| 0.42 | COc1cc(-c2ccc(C3CCc4ccc(C(C5CC5)C(C)C(=O)O)cc4C3)c(F)c2)ccn1 (single isomer, unassigned) [Example 37] |
| 0.76 | COc1cc(-c2ccc(C3Cc4cc([C@H](C5CC5)[C@H](C)C(=O)O)ccc4CO3)cc2)c(F)cn1 (single isomer, unassigned) [Example 39A] |
| 5.2 | COc1cc(-c2ccc(C3Cc4cc([C@H](C5CC5)[C@H](C)C(=O)O)ccc4CO3)cc2)c(F)cn1 (single isomer, unassigned) [Example 39B] |
| 0.21 | COc1ccc(F)c(-c2ccc([C@@H]3Cc4cc([C@H](C5CC5)[C@H](C)C(=O)O)ccc4CO3)cc2)c1 [Example 21, (2S,3R)-3-cyclopropyl-3-((S)-3-(2′-fluoro-5′-methoxy-[1,1′-biphenyl]-4-yl)isochroman-6-yl)-2-methylpropanoic acid] |
